In ChEMBL document CHEMBL1201862, “PubChem BioAssay data set” (2004):
The source made the active and inactive calls.

Columns and labels:
[1] = target: T1, Glycogen synthase kinase-3 beta (Homo sapiens, UniProt P49841); experiment: Inhibition of Human GSK-3 beta Activity Measured in Biochemical System Using Microfluidics - 2063-05_Inhibitor_Dose_DryPowder_Activity_Set2. [Related pubchem assays (depositor defined):AID2709]
[2] = target: T2, Glycogen synthase kinase-3 alpha (Homo sapiens, UniProt P49840); experiment: Inhibition of Human GSK-3 alpha Activity Measured in Biochemical System Using Microfluidics - 2063-06_Inhibitor_Dose_DryPowder_Activity_Set2. [Related pubchem assays (depositor defined):AID2709]
T2 sequence (P49840 whole entry): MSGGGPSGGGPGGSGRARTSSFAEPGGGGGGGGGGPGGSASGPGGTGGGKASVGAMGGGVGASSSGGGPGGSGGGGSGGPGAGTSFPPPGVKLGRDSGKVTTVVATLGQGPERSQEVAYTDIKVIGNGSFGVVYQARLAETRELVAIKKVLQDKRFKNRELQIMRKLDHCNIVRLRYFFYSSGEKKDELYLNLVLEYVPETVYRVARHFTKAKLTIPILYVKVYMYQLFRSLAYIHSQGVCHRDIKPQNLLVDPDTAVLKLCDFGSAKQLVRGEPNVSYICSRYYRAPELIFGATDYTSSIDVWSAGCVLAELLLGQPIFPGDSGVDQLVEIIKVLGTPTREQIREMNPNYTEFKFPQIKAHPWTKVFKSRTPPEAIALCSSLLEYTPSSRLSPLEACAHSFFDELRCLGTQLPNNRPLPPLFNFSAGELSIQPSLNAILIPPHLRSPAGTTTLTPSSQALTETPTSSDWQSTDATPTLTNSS

[3] = target: Cyclin-dependent kinase 5/CDK5 activator 1 (Homo sapiens, UniProt Q00535); experiment: human CDK5 activity blockade – biochemical, microfluidic mobility shift, dry powder, selectivity assay for GSK-3 alpha inhibitor project, dose response (AID 588430)
[4] = Vero cell cytotoxicity, dose response, cytotoxicity control for M. tuberculosis growth inhibitor project, Vero cells, purified and synthesized compounds, set 4 (AID 504854); type: functional; conditions: Mycobacterium tuberculosis
[5] = THP-1 cell cytotoxicity, cytotoxicity control, set 4 (AID 504911); type: functional; conditions: Mycobacterium tuberculosis
Activin receptor type-1 = Activin receptor type-1 (Homo sapiens, UniProt Q04771); experiment: Navigating the Kinome. Panel member name: ACVR1; type: functional
Sequence of Activin receptor type-1 (Q04771 whole entry): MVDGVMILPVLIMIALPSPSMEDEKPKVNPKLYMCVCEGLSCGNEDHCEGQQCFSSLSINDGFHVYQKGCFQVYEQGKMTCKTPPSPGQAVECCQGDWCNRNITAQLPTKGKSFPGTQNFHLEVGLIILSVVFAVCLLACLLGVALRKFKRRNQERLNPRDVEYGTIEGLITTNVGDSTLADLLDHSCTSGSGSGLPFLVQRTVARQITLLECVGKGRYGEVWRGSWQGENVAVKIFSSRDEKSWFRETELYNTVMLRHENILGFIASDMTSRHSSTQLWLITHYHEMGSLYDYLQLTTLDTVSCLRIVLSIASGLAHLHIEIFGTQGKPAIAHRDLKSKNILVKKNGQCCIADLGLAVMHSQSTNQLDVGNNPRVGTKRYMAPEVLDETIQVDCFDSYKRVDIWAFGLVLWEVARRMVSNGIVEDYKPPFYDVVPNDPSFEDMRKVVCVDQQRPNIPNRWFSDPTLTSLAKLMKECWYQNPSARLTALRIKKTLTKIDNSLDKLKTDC

[6] = target: T2, Glycogen synthase kinase-3 alpha; type: functional
[7] = target: T1, Glycogen synthase kinase-3 beta; type: functional
[8] = target: Receptor-type tyrosine-protein kinase FLT3 (Homo sapiens, UniProt P36888); type: functional;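 also: FLT3 was tested as one member of a kinome-wide kinase panel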
[9] = target: Dual specificity protein kinase CLK4 (Homo sapiens, UniProt Q9HAZ1); type: functional
[10] = target: Serine/threonine-protein kinase pim-1 (Homo sapiens, UniProt P11309); type: functional
Sequence of Serine/threonine-protein kinase pim-1 (P11309 whole entry): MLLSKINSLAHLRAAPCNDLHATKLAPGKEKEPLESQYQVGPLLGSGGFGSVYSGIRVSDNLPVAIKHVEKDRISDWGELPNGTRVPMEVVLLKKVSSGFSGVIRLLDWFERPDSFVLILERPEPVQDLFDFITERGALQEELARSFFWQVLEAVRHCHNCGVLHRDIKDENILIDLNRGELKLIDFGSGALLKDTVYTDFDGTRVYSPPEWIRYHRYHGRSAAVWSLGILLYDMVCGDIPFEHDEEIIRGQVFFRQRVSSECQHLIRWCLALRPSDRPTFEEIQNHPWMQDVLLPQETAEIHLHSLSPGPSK

[11] = target: Dual specificity protein kinase CLK2 (Homo sapiens, UniProt P49760); type: functional
H9c2 = experiment: cells; type: functional, cell-based; conditions: Rattus norvegicus, H9c2, Myocardium;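 also: confirmatory concentration-response retest of ultra-high-throughput screening hits for modulation of myocardial damage; cell death induced by hydrogen peroxide oxidative stress; compound pretreatment for 60 min then peroxide exposure for 2 h; potency is for protecting the cells against peroxide damage rather than for killing them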
Melanocortin receptor 4 = Melanocortin receptor 4 (Homo sapiens, UniProt P32245); experiment: inhibitors of MC4R cAMP signaling – cell-based, TR-FRET, biased antagonists, dose response (AID 602298); type: functional;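 also: antagonist potency against agonist-stimulated cAMP production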
Sequence of Melanocortin receptor 4 (P32245 whole entry): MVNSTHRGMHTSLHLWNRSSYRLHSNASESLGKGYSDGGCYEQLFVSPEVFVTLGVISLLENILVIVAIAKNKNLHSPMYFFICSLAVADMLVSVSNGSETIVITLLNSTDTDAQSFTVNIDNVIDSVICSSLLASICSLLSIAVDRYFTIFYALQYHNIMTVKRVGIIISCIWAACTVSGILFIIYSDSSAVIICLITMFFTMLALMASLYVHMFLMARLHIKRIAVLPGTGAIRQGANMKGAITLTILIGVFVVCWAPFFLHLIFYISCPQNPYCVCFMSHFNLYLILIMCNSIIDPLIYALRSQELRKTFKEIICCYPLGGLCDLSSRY

[12] = general cell-killing toxicity readout – plate reader, dry powder samples, cytotoxicity control for PAX8 inhibitor project, dose response (AID 743021); type: functional, cell-based
Paired box protein Pax-8 = Paired box protein Pax-8 (Homo sapiens, UniProt Q06710); experiment: PAX8 transcriptional activity inhibition in RMG-I – RMG-I cells, luciferase, cherry-pick, dose response (AID 687027); type: functional, cell-based;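 also: luciferase reporter driven by Pax8 target thyroperoxidase promoter measured by SteadyGlo luminescence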
Sequence of Paired box protein Pax-8 (Q06710 whole entry): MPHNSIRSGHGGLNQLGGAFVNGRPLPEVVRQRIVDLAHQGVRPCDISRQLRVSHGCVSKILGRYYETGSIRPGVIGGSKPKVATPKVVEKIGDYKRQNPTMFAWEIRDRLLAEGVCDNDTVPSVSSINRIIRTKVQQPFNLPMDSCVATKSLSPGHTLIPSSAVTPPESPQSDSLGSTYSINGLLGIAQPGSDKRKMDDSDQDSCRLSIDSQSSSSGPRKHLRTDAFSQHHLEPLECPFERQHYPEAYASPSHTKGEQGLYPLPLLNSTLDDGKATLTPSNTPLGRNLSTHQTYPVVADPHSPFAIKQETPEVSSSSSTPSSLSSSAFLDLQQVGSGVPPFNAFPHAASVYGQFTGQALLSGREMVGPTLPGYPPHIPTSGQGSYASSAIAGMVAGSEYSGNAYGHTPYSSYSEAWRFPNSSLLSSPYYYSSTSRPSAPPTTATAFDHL

[13] = target: T3, ATP-dependent translocase ABCB1 (Homo sapiens, UniProt P08183); experiment: P-gp JC-1 efflux blockade concentration-response – Jurkat-DNR cells, flow cytometry, set 2, dose response (AID 504569); type: functional; conditions: read-out: EC50_MICROM_;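 also: potency of pump inhibitors that raise cellular JC-1 green fluorescence up to the nicardipine level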
T3 sequence (P08183 whole entry): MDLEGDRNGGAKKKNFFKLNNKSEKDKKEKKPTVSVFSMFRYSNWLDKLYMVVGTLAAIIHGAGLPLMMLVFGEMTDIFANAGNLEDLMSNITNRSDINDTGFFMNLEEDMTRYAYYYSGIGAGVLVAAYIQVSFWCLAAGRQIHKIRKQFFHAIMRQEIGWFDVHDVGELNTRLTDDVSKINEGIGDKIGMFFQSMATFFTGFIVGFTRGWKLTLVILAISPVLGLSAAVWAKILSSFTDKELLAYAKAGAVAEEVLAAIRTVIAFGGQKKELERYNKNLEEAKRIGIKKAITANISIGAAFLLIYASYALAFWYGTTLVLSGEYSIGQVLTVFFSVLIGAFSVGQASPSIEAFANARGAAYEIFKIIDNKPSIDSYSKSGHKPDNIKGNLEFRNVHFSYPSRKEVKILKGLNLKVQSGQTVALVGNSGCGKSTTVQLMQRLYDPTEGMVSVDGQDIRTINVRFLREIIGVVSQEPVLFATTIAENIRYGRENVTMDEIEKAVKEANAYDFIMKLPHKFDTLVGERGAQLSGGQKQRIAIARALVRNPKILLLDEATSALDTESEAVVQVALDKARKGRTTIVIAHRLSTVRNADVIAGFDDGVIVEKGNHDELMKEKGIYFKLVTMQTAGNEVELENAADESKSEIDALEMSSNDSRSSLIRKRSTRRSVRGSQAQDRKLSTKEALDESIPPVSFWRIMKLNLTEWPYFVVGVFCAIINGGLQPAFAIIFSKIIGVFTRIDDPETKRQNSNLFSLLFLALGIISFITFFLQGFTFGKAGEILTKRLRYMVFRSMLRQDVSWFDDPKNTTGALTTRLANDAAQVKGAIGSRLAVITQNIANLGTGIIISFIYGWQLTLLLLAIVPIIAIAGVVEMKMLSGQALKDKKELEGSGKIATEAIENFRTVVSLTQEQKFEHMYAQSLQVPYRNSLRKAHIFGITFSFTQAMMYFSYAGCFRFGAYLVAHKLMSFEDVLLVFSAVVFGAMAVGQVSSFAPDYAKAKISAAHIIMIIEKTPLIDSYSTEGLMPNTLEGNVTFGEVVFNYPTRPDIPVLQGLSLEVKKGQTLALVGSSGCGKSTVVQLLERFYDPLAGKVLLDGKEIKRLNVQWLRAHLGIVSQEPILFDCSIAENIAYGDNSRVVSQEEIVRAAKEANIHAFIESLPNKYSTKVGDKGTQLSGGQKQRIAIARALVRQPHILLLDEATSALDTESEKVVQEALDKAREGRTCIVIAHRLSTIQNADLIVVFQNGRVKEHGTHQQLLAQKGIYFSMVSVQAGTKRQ

HEK293 = experiment: EBV LMP1 TES2 canonical NF-kB signalling blockers – cell-based, HEK293, luciferase, cherry-pick, dose response (AID 588343); type: functional; conditions: Homo sapiens
[14] = cAMP pathway inhibition in counterscreen cell line – TR-FRET cAMP detection, counter-screen for MC4R biased antagonist project, dose response (AID 602305); type: functional, cell-based;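 also: U2OS cells stimulated with forskolin near its EC80 as the cAMP inducer; potency is for inhibition of forskolin-stimulated cAMP signaling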
[15] = target: T3, ATP-dependent translocase ABCB1; experiment: inhibition of BCRP-mediated JC-1 efflux – Ig-MXP3 cells, flow cytometry, set 2, dose response (AID 504566); type: functional; conditions: read-out: EC50_MICROM_;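 also: flow cytometry median green fluorescence of retained JC-1 dye; potency of efflux pump inhibition measured as rising substrate retention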
[16] = target: Protein disulfide-isomerase (Homo sapiens, UniProt P07237); experiment: inhibition of PDI-driven insulin aggregation – biochemical, turbidity, absorbance, cherry-picked samples, dose response (AID 602350); type: functional
Sequence of Protein disulfide-isomerase (P07237 whole entry): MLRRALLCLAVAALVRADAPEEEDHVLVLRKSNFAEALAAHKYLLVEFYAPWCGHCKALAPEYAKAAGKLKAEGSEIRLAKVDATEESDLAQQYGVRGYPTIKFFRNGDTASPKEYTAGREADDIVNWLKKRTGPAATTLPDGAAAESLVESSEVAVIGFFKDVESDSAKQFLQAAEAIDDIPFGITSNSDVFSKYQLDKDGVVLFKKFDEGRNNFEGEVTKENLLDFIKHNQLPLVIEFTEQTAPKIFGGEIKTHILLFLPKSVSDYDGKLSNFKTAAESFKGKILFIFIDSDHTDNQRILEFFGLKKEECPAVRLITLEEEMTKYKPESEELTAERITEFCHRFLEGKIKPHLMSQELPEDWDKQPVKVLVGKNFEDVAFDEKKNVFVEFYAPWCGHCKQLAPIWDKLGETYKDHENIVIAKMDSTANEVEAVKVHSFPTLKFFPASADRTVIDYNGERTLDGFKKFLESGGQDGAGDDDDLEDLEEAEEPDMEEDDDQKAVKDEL

[17] = microbe, parasite or virus in culture; type: functional; conditions: Mycobacterium tuberculosis
[18] = target: 72 kDa type IV collagenase (Homo sapiens, UniProt P08253); experiment: Dose Response validation of uHTS RPN11 inhibitor hits using a MMP-2 Fluorescence assay.; type: functional
Sequence of 72 kDa type IV collagenase (P08253 whole entry): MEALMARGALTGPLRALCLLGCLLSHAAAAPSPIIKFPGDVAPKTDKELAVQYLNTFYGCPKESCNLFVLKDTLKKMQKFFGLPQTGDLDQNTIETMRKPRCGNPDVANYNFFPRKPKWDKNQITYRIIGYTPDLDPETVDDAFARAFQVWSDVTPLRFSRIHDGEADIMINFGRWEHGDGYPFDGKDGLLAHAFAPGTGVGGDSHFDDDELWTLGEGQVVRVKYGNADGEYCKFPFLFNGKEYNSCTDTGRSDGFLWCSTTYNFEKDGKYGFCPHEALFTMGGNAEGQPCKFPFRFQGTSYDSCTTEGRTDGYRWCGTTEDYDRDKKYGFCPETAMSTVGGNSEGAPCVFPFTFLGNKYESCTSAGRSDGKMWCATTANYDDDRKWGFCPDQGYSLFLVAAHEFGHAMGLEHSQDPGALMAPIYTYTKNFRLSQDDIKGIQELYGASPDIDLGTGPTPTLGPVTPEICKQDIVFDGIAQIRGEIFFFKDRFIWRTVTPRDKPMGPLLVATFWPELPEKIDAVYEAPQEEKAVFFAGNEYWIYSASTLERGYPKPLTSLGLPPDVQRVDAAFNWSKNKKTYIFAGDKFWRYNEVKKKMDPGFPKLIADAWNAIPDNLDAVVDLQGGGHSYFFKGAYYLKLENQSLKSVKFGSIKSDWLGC

[19] = target: 26S proteasome non-ATPase regulatory subunit 14 (Homo sapiens, UniProt O00487); experiment: inhibition of proteasome subunit RPN11 – biochemical, fluorescence polarization, uHTS hits, confirmation (AID 602368); type: functional
Vero = experiment: cells; type: functional; conditions: Chlorocebus sabaeus
Prothrombin = Prothrombin (Bos taurus, UniProt P00735); experiment: thrombin protease inhibitors – biochemical, fluorescence polarization, uHTS hits, dose response (AID 602369); type: functional

T1 sequence (P49841 whole entry): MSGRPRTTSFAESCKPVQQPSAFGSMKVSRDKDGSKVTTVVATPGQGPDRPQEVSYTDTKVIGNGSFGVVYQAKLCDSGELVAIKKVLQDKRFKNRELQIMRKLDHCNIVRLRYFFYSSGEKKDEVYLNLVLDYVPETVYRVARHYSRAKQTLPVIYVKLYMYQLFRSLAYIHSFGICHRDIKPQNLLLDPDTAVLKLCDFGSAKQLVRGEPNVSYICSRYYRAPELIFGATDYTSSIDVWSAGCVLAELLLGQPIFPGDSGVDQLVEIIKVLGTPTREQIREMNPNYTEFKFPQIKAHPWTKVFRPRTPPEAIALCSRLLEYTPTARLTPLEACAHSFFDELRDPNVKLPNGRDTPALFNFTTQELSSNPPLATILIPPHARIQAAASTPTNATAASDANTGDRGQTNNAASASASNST

Q: With O=C1c2ccccc2-c2onc3ccc(NCCCN4CCNC4)c1c23 as the molecule, how does the AC50 [1] read?
A: Its AC50 is 161 nM (active).

Q: And the AC50 [2]?
A: Its AC50 is 520 nM (active).

Q: And the AC50 [3]?
A: The AC50 was 76.2 µM (active).

Q: With CC(C)NC(=O)CSc1nc2ccccc2c(=O)[nH]1 as the molecule, how does the CC50 [4] read?
A: Its CC50 is > 100 µM (active).

Q: And the CC50 [5]?
A: Its CC50 is > 100 µM (active).

Q: Which Ki (Activin receptor type-1) does the source give for CCc1cnn2c(NCc3ccc[n+]([O-])c3)cc(N3CCCCC3CCO)nc12 (stereo unspecified) here?
A: Its Ki is > 3.98 µM (inactive).

Q: What about the Ki [6] of the same molecule?
A: The Ki was 1.58 µM (active).

Q: What about the Ki [7] of the same molecule?
A: Its Ki is 1.26 µM (active).

Q: What about the Ki [8] of the same molecule?
A: The Ki was > 3.16 µM (inactive).

Q: Which results are given for COCCn1c(C)c(C)sc1=NC(=O)c1cc(SC)ccc1Cl?
A: Ki [9]: 5.01 µM (active); Ki [10]: 6.31 µM (active); Ki [11]: 6.31 µM (active)

Q: For C#Cc1cc(N2CCN(C(=O)c3ccoc3)CC2)n2nc(-c3cccc(Cl)c3)cc2n1, which IC50 (H9c2) is on record?
A: Its IC50 is > 79 µM (inactive).

Q: What about the IC50 (Melanocortin receptor 4) of the same molecule?
A: The IC50 was > 64.6 µM (inactive).

Q: What about the AC50 [12] of the same molecule?
A: Its AC50 is 4.43 µM (active).

Q: What about the AC50 (Paired box protein Pax-8) of the same molecule?
A: Its AC50 is 3.79 µM (active).

Q: And the EC50 [13]?
A: Its EC50 is 7.34 µM (active).

Q: And the AC50 (HEK293)?
A: Its AC50 is 13.4 µM (active).

Q: And the IC50 [14]?
A: Its IC50 is > 64.6 µM (inactive).

Q: What about the EC50 [15] of the same molecule?
A: Its EC50 is 1.98 µM (active).

Q: With CC[C@]12c3[nH]c4cc(-c5ccco5)ccc4c3CCN1C(=O)[C@@H](CC(=O)NCc1ccc(OC)c(OC)c1)C[C@@H]2C(=O)N1CCN(C(=O)c2ccco2)CC1 as the molecule, how does the AC50 [16] read?
A: Its AC50 is 4.25 µM (active).

Q: With COc1cc(/C=C/C(O)=C2\C(=O)NC(=O)N(CCc3ccccc3)C2=O)ccc1O as the molecule, how does the CC50 [17] read?
A: The CC50 was 15.9 µM (active).

Q: What about the IC50 [18] of the same molecule?
A: Its IC50 is > 100 µM (inactive).

Q: And the IC50 [19]?
A: The IC50 was 29.2 µM (active).

Q: What about the CC50 (Vero) of the same molecule?
A: Its CC50 is 17.7 µM (active).

Q: And the IC50 (Prothrombin)?
A: Its IC50 is 40.6 µM (active).
